Read-outs that look alike come from different tables or passages of the source.
Key:
Assay type in all cases: cell-based
HCT15 cells = assay: ATPlite cell viability after oxaliplatin, HCT15 cells in organoid culture media
Description: (§1) Advanced DMEM/F12+++ (hereinafter referred to as “Ad/DF+++”) was used to produce colorectal cancer organoids. Ad/DF+++ was refrigerated at 4° C. until use, and was used in a cold state during cell washing. Ad/DF+++ medium containing the reagents shown in Table 1 below along with Ad/DF 1× (Gibco) was prepared.
(§2) After preparing the Ad/DF+++ medium containing the above reagents, an appropriate amount of Matrigel (Corning #356231) was added so that the ratio between Matrigel and cells suspended in the Ad/DF+++ medium was 7:3. Then, the cells were plated on low attachment well plates at an appropriate density. The density and the type and number of well plates were determined according to the characteristics of each cell type. […]
(§3) If the organoids were expanded as needed for the experiment, the medium was carefully removed, taking care not to touch the Matrigel. […] After suspending the pellet in Ad/DF+++, the cells were counted and diluted with medium according to the required number of cells. […]
(§4) Four hours after the medium change, the cells were treated with oxaliplatin, 5-FU, Irinotecan, and folinic acid. Five days after drug treatment, intracellular ATP expression was determined using the ATPlite assay kit (PerkinElmer), and the data were expressed in terms of cell viability, IC50, and AUC. […]

CoLo205 cells = assay: ATPlite cell viability after oxaliplatin, CoLo205 cells in organoid culture media; details: FIG. 19
Description: as §1, §2, §3, §4

RKO cells = assay: ATPlite cell viability after oxaliplatin, RKO cells in organoid culture media
Description: as §1
(§5) After preparing the Ad/DF+++ medium containing the above reagents, an appropriate amount of Matrigel (Corning #356231) was added so that the ratio between Matrigel and cells suspended in the Ad/DF+++ medium was 7:3. Then, the cells were plated on low attachment well plates at an appropriate density. The density and the type and number of well plates were determined according to the characteristics of each cell type. The medium was prepared according to the composition shown in Table 2 below, and the cells were cultured (expanded) until the required level was reached while the medium was replaced every 3 to 4 days.
If the organoids were expanded as needed for the experiment, the medium was carefully removed, taking care not to touch the Matrigel. The cells were separated from the Matrigel by pipetting about 20 times with 1 ml of cold Ad/DF+++. The cells in 1 to 4 wells per 6-well plate were collected in one 50 ml tube. If cells are collected from more than 4 wells into one tube, the Metrigel may not be washed properly. For this reason, the cells were placed in several tubes. […] After suspending the pellet in Ad/DF+++, the cells were counted and diluted with medium according to the required number of cells. […]
(§6) Four hours after the medium change, the cells were treated with oxaliplatin, 5-FU, Irinotecan, and folinic acid. Five days after drug treatment, intracellular ATP expression was determined using the ATPlite assay kit (PerkinElmer), and the data were expressed in terms of cell viability, IC50, and AUC.
As the standard for confirming that cells are sensitive to the drug, the response of the cells to the drug was assumed to be 100%, and the luminescence value of surviving cells after drug treatment was analyzed and compared with the quantified drug response value. […]

HCT116 cells = assay: ATPlite cell viability after drug treatment, HCT116 cells in cell-line or organoid culture media; parameters: AUC 1st / AUC 2nd / AUC 3rd / AUC Average: unit not given here
Description: as §1, §5
If the organoids were expanded as needed for the experiment, the medium was carefully removed, taking care not to touch the Matrigel. The cells were separated from the Matrigel by pipetting about 20 times with 1 ml of cold Ad/DF+++. The cells in 1 to 4 wells per 6-well plate were collected in one 50 ml tube. If cells are collected from more than 4 wells into one tube, the Metrigel may not be washed properly. For this reason, the cells were placed in several tubes. Thereafter, Ad/DF+++ was poured to 20 to 50 ml of each tube, followed by centrifugation at 400 g for 3 minutes at 4° C. The cells were dissociated with 1 to 2 mL of TrypLE™ Express Enzyme (Gibco, 1264-013), transferred to low-attachment 24 well plates, and then treated with 10 μM of Y-27632. Next, the cells were cultured in a CO2 incubator for 5 minutes at 37° C. After pipetting about 20 times, whether the cells would be dissociated into single cells was checked by microscopic observation. If the cells were not dissociated into single cells, the culture under CO2 and pipetting processes were repeated. After the single cells were transferred into 15-ml tubes, Ad/DF+++ was filled to 10 to 15 ml of each tube, followed by centrifugation at 400 g at 4° C. for 3 minutes. After suspending the pellet in Ad/DF+++, the cells were counted and diluted with medium according to the required number of cells.
12 hours after seeding in Experimental Example 1-2 above, the medium was changed with the medium shown in Table 3 below, followed by culturing to produce organoids.
as §6
As the standard for confirming that cells are sensitive to the drug, the response of the cells to the drug was assumed to be 100%, and the luminescence value of surviving cells after drug treatment was analyzed and compared with the quantified drug response value.
Based on the assumption that the factor that increases the resistance of the organoids to oxaliplatin is an activator or inhibitor that changes the phenotype, the organoids prepared by excluding some or all of activators and inhibitors as shown in Table 4 below were treated with oxaliplatin.
In order to identify the factors that reduce the resistance to oxaliplatin of the Ex2 organoid, activators or inhibitors that change the phenotype were added one by one to the Ex2 organoid composition, thus producing organoids as shown in Table 8 below. Then, it was checked whether the produced organoids had increased resistance to oxaliplatin.

`O=C1[O][Pt]2([NH][C@@H]3CCCC[C@H]3[NH]2)[O]C1=O` [oxaliplatin] was tested, and the cell viability (HCT15 cells; Ex2 and Ex4, log [oxaliplatin] value 2, FIG. 18) was no less than 50%, the “AUC value, Ex1 to Ex4 compared” value (HCT15 cells; FIG. 17) was “decreased under the organoid culture conditions of Ex2” and the “AUC values of Ex2 to Ex4 compared with Ex1” value (CoLo205 cells) was “higher than that of Ex1”. For the same molecule, the “AUC value, Ex1 to Ex4 compared” value (RKO cells; FIG. 6) was “the lowest in the organoid culture conditions of Ex2”, the “IC50 value, Ex2 compared with Ex1” value (RKO cells; FIG. 7) was “significantly lower in Ex2 than in Ex1” and the “cell viability versus oxaliplatin concentration” value (RKO cells; MEM control, Ex1, Ex2, FIG. 8) was “fastest decrease in cell viability, followed by Ex2”. For the same molecule, the “AUC value, Ex2 compared with Ex1” value (HCT116 cells; HCT116, FIG. 3) was “significantly lower AUC values than those of Ex1”, the “AUC value, Ex3 and Ex4 compared with Ex1” value (HCT116 cells; HCT116, FIG. 3) was “lower AUC values than Ex1” and the “IC50 value, Ex2 compared with Ex1” value (HCT116 cells; HCT116, FIG. 4) was “similarly lowered in Ex2 compared to Ex1”. For the same molecule, the “cell viability versus oxaliplatin concentration” value (HCT116 cells; HCT116, McCoys control, Ex1, Ex2, FIG. 5) was “similarly lowered in the control (McCoys) HCT116 cells and the cells cultured under the organoid culture conditions of Ex2”, the “AUC 1st” value (HCT116 cells; HCT116 cell line in McCoys (control), 1st) was 312.3 and the IC50 (HCT116 cells; HCT116 cell line in McCoys (control), 1st, read-out: IC50 (μM) 1st) was 24.1 µM. For the same molecule, the “AUC 2nd” value (HCT116 cells; HCT116 cell line in McCoys (control), 2nd) was 278.4, the IC50 (HCT116 cells; HCT116 cell line in McCoys (control), 2nd, read-out: IC50 (μM) 2nd) was 10.7 µM and the “AUC 3rd” value (HCT116 cells; HCT116 cell line in McCoys (control), 3rd) was 307.3. The IC50 (HCT116 cells; HCT116 cell line in McCoys (control), 3rd, read-out: IC50 (μM) 3rd) was 28.8 µM, the “AUC Average” value (HCT116 cells; HCT116 cell line in McCoys (control), average) was 299.3 and the IC50 (HCT116 cells; HCT116 cell line in McCoys (control), average, read-out: IC50 (μM) Average) was 21.2 µM. The “AUC 1st” value (HCT116 cells; HCT116 in Ex1 (all inhibitors and activators), 1st) was 379.7, the IC50 (HCT116 cells; HCT116 in Ex1 (all inhibitors and activators), 1st, read-out: IC50 (μM) 1st) was 133 µM and the “AUC 2nd” value (HCT116 cells; HCT116 in Ex1, 2nd) was 379.9. For the same molecule, the IC50 (HCT116 cells; HCT116 in Ex1, 2nd, read-out: IC50 (μM) 2nd) was 98 µM, the “AUC 3rd” value (HCT116 cells; HCT116 in Ex1, 3rd) was 390.0 and the IC50 (HCT116 cells; HCT116 in Ex1, 3rd, read-out: IC50 (μM) 3rd) was 167 µM. For the same molecule, the “AUC Average” value (HCT116 cells; HCT116 in Ex1, average) was 383.2, the IC50 (HCT116 cells; HCT116 in Ex1, average, read-out: IC50 (μM) Average) was 133 µM and the “AUC 1st” value (HCT116 cells; HCT116 in Ex2 (no inhibitors, no activators), 1st) was 319.8. For the same molecule, the IC50 (HCT116 cells; HCT116 in Ex2 (no inhibitors, no activators), 1st, read-out: IC50 (μM) 1st) was 27.8 µM, the “AUC 1st” value (HCT116 cells; HCT116 in Ex2-1 (Ex2 + A83-01 500 nM), 1st) was 328.0 and the IC50 (HCT116 cells; HCT116 in Ex2-1 (Ex2 + A83-01 500 nM), 1st, read-out: IC50 (μM) 1st) was 46 µM. For the same molecule, the “AUC 2nd” value (HCT116 cells; HCT116 in Ex2-1, 2nd) was 341.6, the IC50 (HCT116 cells; HCT116 in Ex2-1, 2nd, read-out: IC50 (μM) 2nd) was 52.2 µM and the “AUC 3rd” value (HCT116 cells; HCT116 in Ex2-1, 3rd) was 342.0. The IC50 (HCT116 cells; HCT116 in Ex2-1, 3rd, read-out: IC50 (μM) 3rd) was 81.8 µM, the “AUC Average” value (HCT116 cells; HCT116 in Ex2-1, average) was 337.2 and the IC50 (HCT116 cells; HCT116 in Ex2-1, average, read-out: IC50 (μM) Average) was 60 µM. For the same molecule, the “AUC 1st” value (HCT116 cells; HCT116 in Ex2-2 (Ex2 + Y-27632 10 μM), 1st) was 284.9, the IC50 (HCT116 cells; HCT116 in Ex2-2 (Ex2 + Y-27632 10 μM), 1st, read-out: IC50 (μM) 1st) was 13 µM and the “AUC 2nd” value (HCT116 cells; HCT116 in Ex2-2, 2nd) was 320.5. The IC50 (HCT116 cells; HCT116 in Ex2-2, 2nd, read-out: IC50 (μM) 2nd) was 38.4 µM, the “AUC 3rd” value (HCT116 cells; HCT116 in Ex2-2, 3rd) was 301.0 and the IC50 (HCT116 cells; HCT116 in Ex2-2, 3rd, read-out: IC50 (μM) 3rd) was 16 µM.

— patent US20250102494A1, “COMPOSITION FOR PREDICTING OXALIPLATIN DRUG EFFICACY, AND USE THEREOF” (SAMSUNG LIFE PUBLIC WELFARE FOUNDATION, priority 2022, published 2025)
